{"source": "patent US7666392B2", "about": "“Click chemistry-derived cyclopeptide derivatives as imaging agents for integrins” (Siemens Medical Solutions USA, Inc., priority 2006, dated 2010)", "origin": "cited, not measured here"}
{"substance": "c(RGDyV)", "values": [{"measurement": "tumor uptake in vivo", "setting": "125I-labeled", "result": "receptor-specific tumor uptake in vivo"}, {"measurement": "tumor washout and excretion", "setting": "in vivo", "result": "rapid tumor washout and unfavorable hepatobiliary excretion"}]}
